Results taken from publication PMC4585333, “Novel Regulator of Acylated Ghrelin, CF801, Reduces Weight Gain, Rebound Feeding after a Fast, and Adiposity in Mice” (Frontiers in Endocrinology, 2015).

Experiments:
Format in all cases: in vivo, male C57BL/6J mice
[1] = Blood glucose in trunk blood; details: after 4 days i.p. treatment, fast and refeeding, F(1,15) = 1.105, p > 0.05
Protocol: Mice (n = 16) were singly housed and given free access to water and regular chow for a 4-day baseline period. After this, mice were assigned to one of three groups: vehicle (n = 5), CF801 low dose (n = 5; 11 μmol⋅kg^−1 – LD), or CF801 high dose (n = 6; 22 μmol⋅kg^−1 – HD). These mice were injected intraperitoneally once a day for 4 days starting at 10:00 a.m. Following 4 days of treatment, animals were tested for rebound feeding after a fast. To do this, we removed the food from each cage 1 h before lights out (6:00 p.m.), and food was returned to the cage the following day 1 h after the last injection. Food intake was then monitored every hour for 4 h to determine the effects of CF801 on rebound feeding. Animals were then sacrificed by rapid decapitation to collect trunk blood and other tissues. Two samples were lost during sample collection, so the number of samples used to measure acylated ghrelin was reduced to n = 14.
Following the treatment or recovery periods, mice were killed by rapid decapitation and plasma and tissue samples were collected. To measure glucose levels, glucose strips attached to a Contour glucose meter (Bayer Corp., Pittsburgh, PA, USA) were dipped in trunk blood collected before being centrifuged. […] Plasma acylated ghrelin for all animals was measured using an ELISA kit (Millipore).

[2] = Food intake and dietary preference (chow and high-fat diet)
Protocol: (§1) In general, male C57BL/6J mice (The Jackson Laboratory, Bar Harbor, ME, USA) weighing 20–25 g were used as experimental subjects. Throughout the duration of the studies, mice were housed under standard laboratory conditions and received ad libitum access to standard laboratory mouse chow and tap water. Lights in the facility were set to go on and off at 12 h intervals with the lights going on at 7:00 a.m. In some experiments, mice also had ad libitum access to a high-fat diet containing 60% caloric content from fat (TD 06414; Harlan Teklad, Indianapolis, IN, USA) in addition to regular chow to measure dietary preferences. All procedures were approved by the Carleton University Animal Care Committee and followed the guidelines of the Canadian Council on Animal Care.
(§2) A second cohort of mice (n = 30) was acclimated to the laboratory conditions for 1 week prior to the onset of the experiment. Mice were housed individually and their body weight and food intake was recorded daily for a baseline period of 10 days. Given that ghrelin augments the intake of preferred diets ([28]), all mice received ad libitum access to a high-fat diet (60% of calories coming from fat), in addition to regular chow, to determine if CF801 altered dietary preference. Both chow and high-fat diet pellets were provided daily to mice ad libitum in pre-weighed amounts. Mice were then assigned to four different groups: non-injected control (NIC; n = 7), vehicle (0.9% saline) (VEH; n = 7), low-dose CF801 (11 μmol⋅kg^−1 – LD; n = 8) and high-dose CF801 (22 μmol⋅kg^−1 – HD; n = 8). Each day at 09:00 hours, mice were weighed and their food intake (both chow and high-fat diet) was recorded. After this, mice received an intraperitoneal injection of either CF801 or saline (except for the non-injected controls). Following the 13-day treatment period, half the animals in each group were sacrificed, while the remaining mice were allowed to recover from treatment. […] At this point, the remaining mice were sacrificed. Carcasses from all animals were frozen and stored at −80°C until they were scanned for body composition analyses. Immediately prior to analysis, all carcasses were thawed to room temperature and weighed in order to obtain measures relative to total carcass mass. EchoMRI carcass analyses were performed at Health Canada, Nutrition Research Division facilities using the EchoMRI-1100 (System ID EF-020) scanner. Each carcass was analyzed separately and measurements of total fat mass, total lean mass, and total water weight were obtained for each mouse.

[3] = Body weight gain; details: 13 days
Protocol: as §1
A second cohort of mice (n = 30) was acclimated to the laboratory conditions for 1 week prior to the onset of the experiment. Mice were housed individually and their body weight and food intake was recorded daily for a baseline period of 10 days. Given that ghrelin augments the intake of preferred diets ([28]), all mice received ad libitum access to a high-fat diet (60% of calories coming from fat), in addition to regular chow, to determine if CF801 altered dietary preference. Both chow and high-fat diet pellets were provided daily to mice ad libitum in pre-weighed amounts. Mice were then assigned to four different groups: non-injected control (NIC; n = 7), vehicle (0.9% saline) (VEH; n = 7), low-dose CF801 (11 μmol⋅kg^−1 – LD; n = 8) and high-dose CF801 (22 μmol⋅kg^−1 – HD; n = 8). Each day at 09:00 hours, mice were weighed and their food intake (both chow and high-fat diet) was recorded. After this, mice received an intraperitoneal injection of either CF801 or saline (except for the non-injected controls). Following the 13-day treatment period, half the animals in each group were sacrificed, while the remaining mice were allowed to recover from treatment. […] Each carcass was analyzed separately and measurements of total fat mass, total lean mass, and total water weight were obtained for each mouse.

[4] = EchoMRI carcass body composition
Protocol: as §2
Given these changes in metabolic efficiency as well as the decrease in RER observed in the calorimetry experiment, we hypothesized that CF801 treatment would result in less accumulation of fat. To determine if this was the case, we conducted EchoMRI analyses on every animal post-mortem to identify differences in body composition as a function between groups. […] Furthermore, there was a significant treatment effect on the fat mass:total mass ratio following the recovery period [F(1,15) = 9.245, p < 0.05; partial eta^2 = 0.716].

[5] = Metabolic efficiency; details: treatment period
Protocol: as §2
Metabolic efficiency, defined as the amount of weight gained per calorie of energy consumed during a given time period, was calculated for each mouse during the baseline and treatment period. There were no differences in metabolic efficiency between any groups during the baseline period (data not shown).

Q: Which results are given for GSAFLSPEHQRK KRRQRRR-NH2 [CF801]?
A: blood glucose concentrations [1]: No significant differences; high-fat diet intake, low dose vs NIC and VEH ([2]; 11 μmol⋅kg^−1 i.p. daily, 13 days, p's < 0.05): significantly less high-fat diet; regular chow consumption, high dose ([2]; 22 μmol⋅kg^−1 i.p. daily, 13 days, vs every other group, F(3,28) = 5.305, p < 0.05, partial eta^2 = 0.41): significantly more regular chow; high-fat diet intake, high dose vs NIC and VEH ([2]; 22 μmol⋅kg^−1 i.p. daily, 13 days, p's < 0.05): significantly less high-fat diet; caloric intake, recovery period ([2]; 8-day recovery without injection, F(1,29) = 2.093, p > 0.05): no differences between any groups; caloric intake, treatment period ([2]; 13-day i.p. treatment, 11 and 22 μmol⋅kg^−1, chow plus high-fat diet, F(1,29) = 0.783, p > 0.05): no differences between any groups; high-fat diet intake, dose dependence ([2]; 13-day i.p. treatment, F(3,29) = 6.788, p < 0.05, partial eta^2 = 0.45): overall significant dose-dependent decrease in the intake of the high-fat diet; high-fat diet intake, high dose vs low dose ([2]; 22 vs 11 μmol⋅kg^−1 i.p. daily, 13 days): tended to consume less than animals receiving LD CF801 (p = 0.073); caloric intake at end of treatment period ([2]; once CF801 injections stop): small spike in caloric intake; weight gain, low dose vs NIC and VEH ([3]; 11 μmol⋅kg^−1 i.p. daily, not statistically significant): tended to have lower weight gain than control NIC (p = 0.092) and VEH-treated mice (p = 0.065); weight gain, high dose ([3]; 22 μmol⋅kg^−1 i.p. daily, vs saline or non-injected, F(3,29) = 3.098, p < 0.05, partial eta^2 = 0.271): decrease in weight gain; weight gain, low dose vs high dose ([3]; 11 vs 22 μmol⋅kg^−1 i.p. daily, p > 0.05): no differences in weight gain; fat mass, low dose, after recovery ([4]; 11 μmol⋅kg^−1 i.p., 2 weeks after last treatment, vs VEH and NIC, p < 0.05): lower fat mass than mice in the VEH and NIC; fat mass:lean mass ratio, low dose vs NIC ([4]; 11 μmol⋅kg^−1 i.p., following recovery period, p < 0.05): significantly lower fat mass:lean mass ratio; fat mass:lean mass ratio, low dose vs VEH ([4]; 11 μmol⋅kg^−1 i.p., following recovery period, p = 0.058): tended to show a reduction in fat mass:lean mass ratio; fat mass:total mass ratio, low dose vs NIC and VEH ([4]; 11 μmol⋅kg^−1 i.p., following recovery period, p's < 0.05, overall F(1,15) = 9.245, partial eta^2 = 0.716): significantly lower fat mass:total mass ratios; fat mass, low dose, after treatment period ([4]; 11 μmol⋅kg^−1 i.p., vs VEH, end of treatment, p > 0.05): lower fat mass compared to VEH-treated animals, but this was not statistically significant; total fat mass, high dose, after recovery ([4]; 22 μmol⋅kg^−1 i.p., 2 weeks after treatment terminated, F(1,15) = 15.18, p < 0.05, partial eta^2 = 0.805): this decrease was more evident; fat mass:lean mass ratio, high dose vs NIC and VEH ([4]; 22 μmol⋅kg^−1 i.p., following recovery period, p < 0.05, overall F(1,15) = 7.735, partial eta^2 = 0.678): significantly lower fat mass:lean mass ratio; fat mass:total mass ratio, high dose vs NIC and VEH ([4]; 22 μmol⋅kg^−1 i.p., following recovery period, p's < 0.05, overall F(1,15) = 9.245, partial eta^2 = 0.716): significantly lower fat mass:total mass ratios; total fat mass, high dose, after treatment period ([4]; 22 μmol⋅kg^−1 i.p., vs VEH, right after 13-day treatment, F(1,14) = 3.54, p > 0.05 as printed, partial eta^2 = 0.515): significantly lower; fat mass:lean mass ratio, high dose vs low dose ([4]; 22 vs 11 μmol⋅kg^−1, following recovery period, p > 0.05): no different than animals treated with LD CF801; lean body mass ([4]; between groups, p > 0.05): no differences between the groups; water mass ([4]; between groups, p > 0.05): no differences between the groups; metabolic efficiency, low dose vs NIC and VEH ([5]; 11 μmol⋅kg^−1 i.p., p < 0.05, overall F(1,29) = 9.086, partial eta^2 = 0.522): significantly lower metabolic efficiencies; metabolic efficiency, high dose vs NIC and VEH ([5]; 22 μmol⋅kg^−1 i.p., p < 0.05, overall F(1,29) = 9.086, partial eta^2 = 0.522): significantly lower metabolic efficiencies; metabolic efficiency, high dose vs low dose ([5]; 22 vs 11 μmol⋅kg^−1 i.p., p > 0.05): no different than animals receiving LD CF801
